Laboratory results: US12473304B2, “Heterocyclic PAD4 inhibitors” (BRISTOL-MYERS SQUIBB COMPANY, priority 2020, dated 2025)

Target: human PAD4 (hPAD4) (Homo sapiens (Human), UniProt Q9UM07)
Experiment: RFMS Human PAD4 Functional Assay 1
Format: biochemical
Conditions: RFMS assay 1; 5 nM hPAD4, 250 μM BAEE substrate, 50 μM calcium, 37° C.
Summary of the method: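 Recombinant hPAD4 (5 nM) was preincubated with compound (top 50 μM, 0.5% DMSO) for 30 min at 37 °C, then reacted with 250 μM BAEE for 90 min at 37 °C in pH 7.5 HEPES buffer with 50 μM calcium and 5 μM TPEN. Product was derivatized with phenyl glyoxal and quantified by RapidFire MS.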

human PAD4 (hPAD4), sequence (Q9UM07 whole entry): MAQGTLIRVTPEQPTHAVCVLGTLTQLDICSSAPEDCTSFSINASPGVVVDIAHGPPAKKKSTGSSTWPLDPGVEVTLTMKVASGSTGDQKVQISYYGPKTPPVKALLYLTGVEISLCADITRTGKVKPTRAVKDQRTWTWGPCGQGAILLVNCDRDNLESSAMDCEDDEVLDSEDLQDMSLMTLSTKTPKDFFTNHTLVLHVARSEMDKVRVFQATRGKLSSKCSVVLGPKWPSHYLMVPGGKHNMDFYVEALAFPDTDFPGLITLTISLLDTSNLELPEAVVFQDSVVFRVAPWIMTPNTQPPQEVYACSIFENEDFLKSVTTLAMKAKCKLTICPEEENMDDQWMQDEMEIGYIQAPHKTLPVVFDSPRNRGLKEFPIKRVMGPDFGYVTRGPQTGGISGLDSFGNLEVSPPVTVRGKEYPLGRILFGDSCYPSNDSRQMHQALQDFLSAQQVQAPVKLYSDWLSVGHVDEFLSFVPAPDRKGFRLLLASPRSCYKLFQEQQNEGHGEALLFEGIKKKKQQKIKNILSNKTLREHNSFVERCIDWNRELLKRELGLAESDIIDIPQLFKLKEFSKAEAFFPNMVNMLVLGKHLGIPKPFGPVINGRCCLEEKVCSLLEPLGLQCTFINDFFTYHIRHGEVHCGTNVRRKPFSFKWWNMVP

Row | SMILES | IC50 [nM]
1 | CC(=O)N(C)C1CCN(c2ccc3cc(-c4nn5cc(C(=O)N6CCC[C@@H](N)C6)cc(F)c5c4C)n(CC4CC4)c3n2)CC1 [Example 271, N-[1-(2-{6-[(3R)-3-Aminopiperidine-1-carbonyl]-4-fluoro-3-methylpyrazolo[1,5-a]pyridin-2-yl}-1-(cyclopropylmethyl)-1H-pyrrolo[2,3-b]pyridin-6-yl)piperidin-4-yl]-N-methylacetamide] | 2070
2 | COC(=O)N(C)C1CCN(c2ccc3cc(-c4nn5cc(C(=O)N6CCC[C@@H](N)C6)cc(F)c5c4C)n(CC4CC4)c3n2)CC1 [Example 272, Methyl N-[1-(2-{6-[(3R)-3-aminopiperidine-1-carbonyl]-4-fluoro-3-methylpyrazolo[1,5-a]pyridin-2-yl}-1-(cyclopropylmethyl)-1H-pyrrolo[2,3-b]pyridin-6-yl)piperidin-4-yl]-N-methylcarbamate] | 3810
3 | Cc1c(-c2cc3ccc(N4CCC(N5CCCC5=O)CC4)nc3n2CC2CC2)nn2cc(C(=O)N3CCC[C@@H](N)C3)cc(F)c12 [Example 273, 1-[1-(2-{6-[(3R)-3-Aminopiperidine-1-carbonyl]-4-fluoro-3-methylpyrazolo[1,5-a]pyridin-2-yl}-1-(cyclopropylmethyl)-1H-pyrrolo[2,3-b]pyridin-6-yl)piperidin-4-yl]pyrrolidin-2-one] | 2420
4 | Cc1c(-c2cc3ccc(OC[C@@H]4CCC(=O)N4)nc3n2CC2CC2)nn2cc(C(=O)N3CC4CCC3[C@@H]4N)cc(F)c12 (stereo partly drawn) [Example 274, (5S)-5-{[(2-{6-[(7R)-7-Amino-2-azabicyclo[2.2.1]heptane-2-carbonyl]-4-fluoro-3-methylpyrazolo[1,5-a]pyridin-2-yl}-1-(cyclopropylmethyl)-1H-pyrrolo[2,3-b]pyridin-6-yl)oxy]methyl}pyrrolidin-2-one] | 270
5 | COC1CCN(c2ccc3cc(-c4nn5cc(C(=O)N6CCC[C@@H](N)C6)cc(Cl)c5c4C)n(CC4CC4)c3n2)CC1 [Example 276, (3R)-1-{4-Chloro-2-[1-(cyclopropylmethyl)-6-(4-methoxypiperidin-1-yl)-1H-pyrrolo[2,3-b]pyridin-2-yl]-3-methylpyrazolo[1,5-a]pyridine-6-carbonyl}piperidin-3-amine] | 2770
6 | Cc1cc(C(N)=O)c(F)cc1-c1ccc2cc(-c3nn4cc(C(=O)N5CCC[C@@H](N)C5)cc(F)c4c3C)n(CC3CC3)c2n1 [Example 277, 4-(2-{6-[(3R)-3-Aminopiperidine-1-carbonyl]-4-fluoro-3-methylpyrazolo[1,5-a]pyridin-2-yl}-1-(cyclopropylmethyl)-1H-pyrrolo[2,3-b]pyridin-6-yl)-2-fluoro-5-methylbenzamide] | 220
7 | Cc1c(-c2cc3ccc(-c4cccc(O)c4Cl)nc3n2CC2CC2)nn2cc(C(=O)N3CCC[C@@H](N)C3)cc(F)c12 [Example 278, 3-(2-{6-[(3R)-3-Aminopiperidine-1-carbonyl]-4-fluoro-3-methylpyrazolo[1,5-a]pyridin-2-yl}-1-(cyclopropylmethyl)-1H-pyrrolo[2,3-b]pyridin-6-yl)-2-chlorophenol] | 390
8 | Cc1c(-c2cc3ccc(-c4ccc(C(N)=O)c(F)c4)nc3n2CC2CC2)nn2cc(C(=O)N3CCC[C@@H](N)C3)cc(F)c12 [Example 279, 4-(2-{6-[(3R)-3-Aminopiperidine-1-carbonyl]-4-fluoro-3-methylpyrazolo[1,5-a]pyridin-2-yl}-1-(cyclopropylmethyl)-1H-pyrrolo[2,3-b]pyridin-6-yl)-2-fluorobenzamide] | 200
9 | Cc1c(-c2cc3ccc(-c4ccc(N5CCNC5=O)cc4)nc3n2CC2CC2)nn2cc(C(=O)N3CCC[C@@H](N)C3)cc(F)c12 [Example 280, 1-[4-(2-{6-[(3R)-3-Aminopiperidine-1-carbonyl]-4-fluoro-3-methylpyrazolo[1,5-a]pyridin-2-yl}-1-(cyclopropylmethyl)-1H-pyrrolo[2,3-b]pyridin-6-yl)phenyl]imidazolidin-2-one] | 1090
10 | Cc1c(-c2cc3ccc(-c4ccccc4N4CCNC4=O)nc3n2CC2CC2)nn2cc(C(=O)N3CCC[C@@H](N)C3)cc(F)c12 [Example 281, 1-[2-(2-{6-[(3R)-3-Aminopiperidine-1-carbonyl]-4-fluoro-3-methylpyrazolo[1,5-a]pyridin-2-yl}-1-(cyclopropylmethyl)-1H-pyrrolo[2,3-b]pyridin-6-yl)phenyl]imidazolidin-2-one] | 140
11 | Cc1c(O)cccc1-c1ccc2cc(-c3nn4cc(C(=O)N5CCC[C@@H](N)C5)cc(F)c4c3C)n(CC3CC3)c2n1 [Example 282, 3-(2-{6-[(3R)-3-Aminopiperidine-1-carbonyl]-4-fluoro-3-methylpyrazolo[1,5-a]pyridin-2-yl}-1-(cyclopropylmethyl)-1H-pyrrolo[2,3-b]pyridin-6-yl)-2-methylphenol] | 170
12 | Cc1c(-c2cc3ccc(-c4cccc(O)c4F)nc3n2CC2CC2)nn2cc(C(=O)N3CCC[C@@H](N)C3)cc(F)c12 [Example 283, 3-(2-{6-[(3R)-3-Aminopiperidine-1-carbonyl]-4-fluoro-3-methylpyrazolo[1,5-a]pyridin-2-yl}-1-(cyclopropylmethyl)-1H-pyrrolo[2,3-b]pyridin-6-yl)-2-fluorophenol] | 330
13 | Cc1c(-c2cc3ccc(-c4ccc5c(c4)CNC5=O)nc3n2CC2CC2)nn2cc(C(=O)N3CCC[C@@H](N)C3)cc(F)c12 [Example 284, 5-(2-{6-[(3R)-3-Aminopiperidine-1-carbonyl]-4-fluoro-3-methylpyrazolo[1,5-a]pyridin-2-yl}-1-(cyclopropylmethyl)-1H-pyrrolo[2,3-b]pyridin-6-yl)-2,3-dihydro-1H-isoindol-1-one] | 1860
14 | Cc1c(-c2cc3ccc(-c4ccc5c(c4)C(=O)NC5)nc3n2CC2CC2)nn2cc(C(=O)N3CCC[C@@H](N)C3)cc(F)c12 [Example 285, 6-(2-{6-[(3R)-3-Aminopiperidine-1-carbonyl]-4-fluoro-3-methylpyrazolo[1,5-a]pyridin-2-yl}-1-(cyclopropylmethyl)-1H-pyrrolo[2,3-b]pyridin-6-yl)-2,3-dihydro-1H-isoindol-1-one] | 1270
15 | Cc1cc(-c2ccc3cc(-c4nn5cc(C(=O)N6CCC[C@@H](N)C6)cc(F)c5c4C)n(CC4CC4)c3n2)ccc1C(N)=O [Example 286, 4-(2-{6-[(3R)-3-Aminopiperidine-1-carbonyl]-4-fluoro-3-methylpyrazolo[1,5-a]pyridin-2-yl}-1-(cyclopropylmethyl)-1H-pyrrolo[2,3-b]pyridin-6-yl)-2-methylbenzamide] | 540
16 | CNC(=O)c1ccc(-c2ccc3cc(-c4nn5cc(C(=O)N6CCC[C@@H](N)C6)cc(F)c5c4C)n(CC4CC4)c3n2)cn1 [Example 287, 5-(2-{6-[(3R)-3-Aminopiperidine-1-carbonyl]-4-fluoro-3-methylpyrazolo[1,5-a]pyridin-2-yl}-1-(cyclopropylmethyl)-1H-pyrrolo[2,3-b]pyridin-6-yl)-N-methylpyridine-2-carboxamide] | 1280
17 | Cc1c(-c2cc3ccc(-c4ccn5c(C)nnc5c4)nc3n2CC2CC2)nn2cc(C(=O)N3CCC[C@@H](N)C3)cc(F)c12 [Example 288, (3R)-1-{2-[1-(Cyclopropylmethyl)-6-{3-methyl-[1,2,4]triazolo[4,3-a]pyridin-7-yl}-1H-pyrrolo[2,3-b]pyridin-2-yl]-4-fluoro-3-methylpyrazolo[1,5-a]pyridine-6-carbonyl}piperidin-3-amine] | 80
18 | Cc1c(-c2cc3ccc(Cl)nc3n2CC2CC2)nn2cc(C(=O)N3C[C@H](N)C[C@@H](F)C3)cc(Cl)c12 [Example 289, (3R,5R)-1-{4-Chloro-2-[6-chloro-1-(cyclopropylmethyl)-1H-pyrrolo[2,3-b]pyridin-2-yl]-3-methylpyrazolo[1,5-a]pyridine-6-carbonyl}-5-fluoropiperidin-3-amine] | 3580
19 | Cc1c(-c2cc3ccc(-c4ccc5[nH]ncc5c4)nc3n2CC2CC2)nn2cc(C(=O)N3C[C@H](N)C[C@@H](F)C3)cc(Cl)c12 [Example 290, (3R,5R)-1-{4-Chloro-2-[1-(cyclopropylmethyl)-6-(1H-indazol-5-yl)-1H-pyrrolo[2,3-b]pyridin-2-yl]-3-methylpyrazolo[1,5-a]pyridine-6-carbonyl}-5-fluoropiperidin-3-amine] | 2720
20 | Cc1c(-c2cc3ccc(Cl)nc3n2CC2CC2)nn2cc(C(=O)N3CCC[C@@H](N)C3)cc(Cl)c12 [Example 291, (3R)-1-{4-Chloro-2-[6-chloro-1-(cyclopropylmethyl)-1H-pyrrolo[2,3-b]pyridin-2-yl]-3-methylpyrazolo[1,5-a]pyridine-6-carbonyl}piperidin-3-amine] | 5890
21 | Cc1c(-c2cc3ccc(-c4ccc5[nH]ncc5c4)nc3n2CC2CC2)nn2cc(C(=O)N3CCC[C@@H](N)C3)cc(Cl)c12 [Example 292, (3R)-1-{4-chloro-2-[1-(Cyclopropylmethyl)-6-(1H-indazol-5-yl)-1H-pyrrolo[2,3-b]pyridin-2-yl]-3-methylpyrazolo[1,5-a]pyridine-6-carbonyl}piperidin-3-amine] | 2350
22 | Cc1c(-c2cc3ccc(-c4ccc(C(N)=O)cc4Cl)cc3n2CC2CC2)nn2cc(C(=O)N3CC4CCC3[C@@H]4N)cc(F)c12 (stereo partly drawn) [Example 294, 4-(2-{6-[(7R)-7-Amino-2-azabicyclo[2.2.1]heptane-2-carbonyl]-4-fluoro-3-methylpyrazolo[1,5-a]pyridin-2-yl}-1-(cyclopropylmethyl)-1H-indol-6-yl)-3-chlorobenzamide] | 200
23 | Cc1c(-c2cc3ccc(-c4ccn5c(C)nnc5c4)cc3n2CC2CC2)nn2cc(C(=O)N3CC4CCC3[C@@H]4N)cc(F)c12 (stereo partly drawn) [Example 295, (7R)-2-{2-[1-(Cyclopropylmethyl)-6-{3-methyl-[1,2,4]triazolo[4,3-a]pyridin-7-yl}-1H-indol-2-yl]-4-fluoro-3-methylpyrazolo[1,5-a]pyridine-6-carbonyl}-2-azabicyclo[2.2.1]heptan-7-amine] | 20
